Results: patent publication US12037583B2, “Compositions and methods for immunooncology” (Novartis AG, priority 2015, dated 2024)

What was measured:
PDCD1 = assay: NGS editing of PDCD1 by dgRNA in HEK cells stably expressing Cas9; format: cell-based, human; conditions: at least 3 experiments;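 also: dgRNA lipofected into Cas9-expressing HEK cells, lysed after 24 h, target amplicon sequenced, editing = reads carrying insertions or deletions as percent of all reads including wild type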
Source text: Transfection of Cas9GFP-expressing HEK293 cells (HEK-293_Cas9GFP) was used for primary screening of target specific crRNAs. […] Selected crRNAs were chemically synthesized and delivered in a 96 well format. HEK-293-Cas9GFP cells were transfected with target crRNAs comprising a flagpole region of SEQ ID NO: 6607 in a 1:1 ratio with stock trRNA of SEQ ID NO: 6660. The transfection was mediated using lipofection technology according to manufacturer's protocol (DharmaFECT Duo, GE LifeSciences; or RNAiMax, LifeTechnologies). Transfected cells were lysed 24 h following lipofection and editing (e.g., cleavage) was detected within lysates with the T7E1 assay and/or next generation sequencing (NGS; below).
PCR primers were first designed around the target site, and the genomic area of interest PCR amplified. Additional PCR was performed according to manufacturer's protocols (Illumina) to add the necessary chemistry for sequencing. The amplicons were then sequenced on an Illumina MiSeq instrument. The reads were then aligned to the human reference genome (e.g., hg38) after eliminating those having low quality scores. From the resulting files containing the reads mapped to the reference genome (BAM files), reads which overlap the target region of interest were selected and the number of wild type reads versus the number of reads which contain an insertion or deletion was calculated. The editing percentage was then defined as the total number of reads with insertions or deletions over the total number of reads, including wild type. To determine the pattern of insertions and/or deletions that resulted from the edit, the aligned reads with indels were selected and the number of a reads with a given indel were summed.
Editing of CRISPR systems containing dgRNA molecules comprising targeting domains to sequences of PDCD1 were tested for editing in HEK (gRNA delivered to cells stably expressing Cas9) and CD3+ T cells (gRNA and Cas9 delivered as RNP) according to the methods described herein.
All mean editing % are as measured by NGS and are based on at least 3 experiments.

[1] = test system: potential off-target genomic sites; assay: Off-target editing assessment by oligo insertion assay in Cas9-expressing HEK293 cells; format: cell-based, human; conditions: dual guide RNA, FIG. 63, 64
Source text: A total of 34 guideRNAs (dual guide RNAs comprising the indicated targeting domain, modified or unmodified, as indicated) targeting B2M (5), TRAC (9), TRBC2 (2), PDCD1 (8), FKBP1A (5), or CIITA (5) were screened in the Cas9-expressing HEK293 cells described above in Example 1, and the results are plotted in FIG. 63 and FIG. 64.

FKBP1A = assay: S6 phosphorylation by flow cytometry with or without RAD001 after FKBP1A editing; format: cell-based, human; conditions: primary T cells; 2.5 nM RAD001 3 hours; FIG. 54
Procedure: After thawing, isolated human T cells were activated with CD3/CD28 beads for 3 days at a bead to cell ratio of 3:1. Cells were then electroporated with RNP containing dual guide RNA molecules (as indicated, as described above in these examples), and Cas9 protein using the Neon instrument with the 100 ul tip kit. RNPs were prepared in the following manner. crRNA and trRNA (10 ul of each at 100 uM) were heated in separate tubes to 95 degrees C. for two minutes and then cooled for 5 minutes at room temperature. […]
After electroporation, cells were then transferred into a 6-well plate with 2 ml of T cell media with beads at a 3:1 bead to cell ratio. […] The phosphorylation of S6 was detected by flow cytometry, and was used as an indication of immunosuppressing by RAD001. […] Cells were then washed twice with PBS and analyzed by flow cytometry on the Becton Dickenson LSR Fortessa using FloJo-V10 software.
After electroporation cells were treated with 2.5 nM RAD001 (upper panel) or left untreated (lower panel) and the impact on mTOR pathway inhibition was evaluated by analyzing S6 phosphorylation (pS6) by flow cytometry. […] Positive staining for pS6 (shown in the gating trace) was determined by gating above the fluorescence level seen in a control stained with isotype antibody (not shown). Quantitation of S6 phosphorylation from the flow cytometry data is shown in the graph in the lower panel. […]

CD3 delta and CD3 gamma = assay: Loss of surface CD3 by flow cytometry in primary human CD3+ T cells after CD3 delta / CD3 gamma RNP; format: cell-based; conditions: day 7 post-electroporation; anti-CD3 OKT3
Procedure: Editing of CRISPR systems containing dgRNA molecules comprising targeting domains to sequences of CD3 delta and CD3 gamma were tested for editing in primary CD3+ T cells (gRNA/Cas9 RNP delivered by electroporation) according to the methods described herein. Surface expression of CD3 after editing was assayed by flow cytometry. Briefly, edited CD3+ cells were stained with antibodies against CD3 (OKT3, BioLegend) at day 7 post-electroporation. Expression of CD3 in live cells (identified using 7AAD exclusion) relative to the un-edited controls was used to determine frequency of RNP editing. The results are reported in FIG. 65 and FIG. 66, which include flow cytometry data showing the % editing in primary human CD3+ T cells as measured by loss of surface expression of CD3.

Which “HEK (NGS) % Editing Mean” value (PDCD1) does the source give for “CR000902: dgRNA targeting domain to PDCD1 (guide GCCCACGACACCAACCACCA; targeting domain within dual guide RNA, chemistry not given here, further chemistry not given here; listed as Homo sapiens)” here?
The value was 72%.

And the “off-target editing in oligo insertion assay, in words” value [1]?
The value was “no off-target editing was detected”.

“CR002122: dgRNA targeting domain to FKBP1A (guide GUUCUUUUCACAGAUGAGUG; targeting domain within dual guide RNA, chemistry not given here, further chemistry not given here; listed as Homo sapiens)” was tested. Which “S6 phosphorylation under RAD001, in words” value (FKBP1A) did it give?
Its value is “refractory to the inhibitory effects of the rapalog RAD001”.

How did the “% loss of CD3” value (CD3 delta and CD3 gamma) turn out when “CR005334: dgRNA targeting domain to CD3 delta or CD3 gamma (guide ACUUCGAUAAUGAACUUGCA; chemistry not given here; listed as Homo sapiens)” was run?
The value was 98%.
